Numbers after ± are expanded uncertainties.
Assay: wn = mass fraction of the nth substance listed
Conditions: Liquid, inclined tube viscometer, w1 = 0.505

FC(F)C(F)(F)F [pentafluoroethane] + FCF
Conditions	kinematic viscosity [m2/s]
256.15 K	1.72e-07 ± 1.5e-09
258.15 K	1.685e-07 ± 1.5e-09
260.15 K	1.652e-07 ± 1.5e-09
262.15 K	1.619e-07 ± 1.4e-09
264.15 K	1.587e-07 ± 1.4e-09
266.15 K	1.556e-07 ± 1.4e-09
268.15 K	1.526e-07 ± 1.3e-09
270.15 K	1.497e-07 ± 1.3e-09
272.15 K	1.468e-07 ± 1.3e-09
274.15 K	1.44e-07 ± 1.3e-09
276.15 K	1.413e-07 ± 1.2e-09
278.15 K	1.386e-07 ± 1.2e-09
280.15 K	1.36e-07 ± 1.2e-09
282.15 K	1.335e-07 ± 1.2e-09
284.15 K	1.31e-07 ± 1.2e-09
286.15 K	1.285e-07 ± 1.1e-09
288.15 K	1.262e-07 ± 1.1e-09
290.15 K	1.238e-07 ± 1.1e-09
292.15 K	1.215e-07 ± 1.1e-09
294.15 K	1.193e-07 ± 1e-09
296.15 K	1.171e-07 ± 1e-09
298.15 K	1.15e-07 ± 1e-09
300.15 K	1.129e-07 ± 1e-09
302.15 K	1.108e-07 ± 1e-09
304.15 K	1.088e-07 ± 1e-09
306.15 K	1.068e-07 ± 9e-10
308.15 K	1.048e-07 ± 9e-10
310.15 K	1.029e-07 ± 9e-10
312.15 K	1.01e-07 ± 9e-10
314.15 K	9.92e-08 ± 9e-10
316.15 K	9.73e-08 ± 9e-10
318.15 K	9.55e-08 ± 8e-10
320.15 K	9.38e-08 ± 8e-10
322.15 K	9.2e-08 ± 8e-10
324.15 K	9.03e-08 ± 8e-10
326.15 K	8.86e-08 ± 8e-10
328.15 K	8.7e-08 ± 8e-10
330.15 K	8.53e-08 ± 8e-10
332.15 K	8.37e-08 ± 7e-10
334.15 K	8.21e-08 ± 7e-10
336.15 K	8.06e-08 ± 7e-10
